Source: ChEMBL document CHEMBL3044696, “Synthesis, antimalarial-, and antibacterial activity evaluation of some new 4-aminoquinoline derivatives” (2013)

Key:
Bacillus cereus [1] = experiment: Antibacterial activity against Bacillus cereus ATCC 10876 assessed as growth inhibition at 25 ug/disk after 24 hr by Kirby-Bauer disk diffusion method; type: functional; conditions: ATCC 10876, 24 h, read-out: DIZ
Staphylococcus aureus [2] = experiment: Antibacterial activity against Staphylococcus aureus ATCC BAA 1026 assessed as growth inhibition at 50 ug/disk after 24 hr by Kirby-Bauer disk diffusion method; type: functional; conditions: ATCC BAA 1026, 24 h, read-out: DIZ
Plasmodium falciparum [3] = experiment: Antimalarial activity against chloroquine-sensitive Plasmodium falciparum 3D7 infected human RBC assessed as dead ring and trophozoite stage of parasite at 50 ug/mL after 40 hr by Giemsa staining-based light microscopic analysis relative to control; type: functional
Klebsiella pneumoniae [4] = experiment: Antibacterial activity against Klebsiella pneumoniae ATCC 33495 assessed as growth inhibition at 50 ug/disk after 24 hr by Kirby-Bauer disk diffusion method; type: functional; conditions: ATCC 33495, 24 h, read-out: DIZ
Escherichia coli [5] = experiment: Antibacterial activity against Escherichia coli ATCC 10536 assessed as growth inhibition at 25 ug/disk after 24 hr by Kirby-Bauer disk diffusion method; type: functional; conditions: ATCC 10536, 24 h, read-out: DIZ
Staphylococcus aureus [6] = experiment: Antibacterial activity against Staphylococcus aureus ATCC BAA 1026 assessed as growth inhibition at 25 ug/disk after 24 hr by Kirby-Bauer disk diffusion method; type: functional; conditions: ATCC BAA 1026, 24 h, read-out: DIZ
Bacillus subtilis [7] = experiment: Antibacterial activity against Bacillus subtilis ATCC 11774 assessed as growth inhibition at 25 ug/disk after 24 hr by Kirby-Bauer disk diffusion method; type: functional; conditions: ATCC 11774, 24 h, read-out: DIZ
Klebsiella pneumoniae [8] = experiment: Antibacterial activity against Klebsiella pneumoniae ATCC 33495 assessed as growth inhibition at 25 ug/disk after 24 hr by Kirby-Bauer disk diffusion method; type: functional; conditions: ATCC 33495, 24 h, read-out: DIZ
Pseudomonas aeruginosa [9] = experiment: Antibacterial activity against Pseudomonas aeruginosa ATCC 10662 assessed as growth inhibition at 25 ug/disk after 24 hr by Kirby-Bauer disk diffusion method; type: functional; conditions: ATCC 10662, 24 h, read-out: DIZ
Bacillus subtilis [10] = experiment: Antibacterial activity against Bacillus subtilis ATCC 11774 assessed as growth inhibition at 50 ug/disk after 24 hr by Kirby-Bauer disk diffusion method; type: functional; conditions: ATCC 11774, 24 h, read-out: DIZ
Escherichia coli [11] = experiment: Antibacterial activity against Escherichia coli ATCC 10536 assessed as growth inhibition at 50 ug/disk after 24 hr by Kirby-Bauer disk diffusion method; type: functional; conditions: ATCC 10536, 24 h, read-out: DIZ
Pseudomonas aeruginosa [12] = experiment: Antibacterial activity against Pseudomonas aeruginosa ATCC 10662 assessed as growth inhibition at 50 ug/disk after 24 hr by Kirby-Bauer disk diffusion method; type: functional; conditions: ATCC 10662, 24 h, read-out: DIZ
Plasmodium falciparum [13] = experiment: Antimalarial activity against chloroquine-sensitive Plasmodium falciparum 3D7 infected human RBC assessed as dead ring and trophozoite stage of parasite at 0.4 ug/mL after 40 hr by Giemsa staining-based light microscopic analysis relative to control
Escherichia coli [14] = experiment: Antibacterial activity against Escherichia coli ATCC 10536 assessed as growth inhibition at 5 ug/disk after 24 hr by Kirby-Bauer disk diffusion method; type: functional; conditions: ATCC 10536, 24 h, read-out: DIZ
Klebsiella pneumoniae [15] = experiment: Antibacterial activity against Klebsiella pneumoniae ATCC 33495 assessed as growth inhibition at 5 ug/disk after 24 hr by Kirby-Bauer disk diffusion method; type: functional; conditions: ATCC 33495, 24 h, read-out: DIZ
Pseudomonas aeruginosa [16] = experiment: Antibacterial activity against Pseudomonas aeruginosa ATCC 10662 assessed as growth inhibition at 5 ug/disk after 24 hr by Kirby-Bauer disk diffusion method; type: functional; conditions: ATCC 10662, 24 h, read-out: DIZ
Bacillus cereus [17] = experiment: Antibacterial activity against Bacillus cereus ATCC 10876 assessed as growth inhibition at 5 ug/disk after 24 hr by Kirby-Bauer disk diffusion method; type: functional; conditions: ATCC 10876, 24 h, read-out: DIZ
Staphylococcus aureus [18] = experiment: Antibacterial activity against Staphylococcus aureus ATCC BAA 1026 assessed as growth inhibition at 5 ug/disk after 24 hr by Kirby-Bauer disk diffusion method; type: functional; conditions: ATCC BAA 1026, 24 h, read-out: DIZ
Bacillus subtilis [19] = experiment: Antibacterial activity against Bacillus subtilis ATCC 11774 assessed as growth inhibition at 5 ug/disk after 24 hr by Kirby-Bauer disk diffusion method; type: functional; conditions: ATCC 11774, 24 h, read-out: DIZ

| SMILES | zone of inhibition at 25 µg/disc (Bacillus cereus [1]) [mm] | zone of inhibition at 50 µg/disc (Staphylococcus aureus [2]) [mm] | Activity (Plasmodium falciparum [3]) [%] | zone of inhibition at 50 µg/disc (Klebsiella pneumoniae [4]) [mm] | zone of inhibition at 25 µg/disc (Escherichia coli [5]) [mm] | zone of inhibition at 25 µg/disc (Staphylococcus aureus [6]) [mm] | zone of inhibition at 25 µg/disc (Bacillus subtilis [7]) [mm] | zone of inhibition at 25 µg/disc (Klebsiella pneumoniae [8]) [mm] | zone of inhibition at 25 µg/disc (Pseudomonas aeruginosa [9]) [mm] | zone of inhibition at 50 µg/disc (Bacillus subtilis [10]) [mm] | zone of inhibition at 50 µg/disc (Escherichia coli [11]) [mm] | zone of inhibition at 50 µg/disc (Pseudomonas aeruginosa [12]) [mm] | Activity (Plasmodium falciparum [13]) [%] | zone of inhibition at 5 µg/disc (Escherichia coli [14]) [mm] | zone of inhibition at 5 µg/disc (Klebsiella pneumoniae [15]) [mm] | zone of inhibition at 5 µg/disc (Pseudomonas aeruginosa [16]) [mm] | zone of inhibition at 5 µg/disc (Bacillus cereus [17]) [mm] | zone of inhibition at 5 µg/disc (Staphylococcus aureus [18]) [mm] | zone of inhibition at 5 µg/disc (Bacillus subtilis [19]) [mm] |
| --- | --- | --- | --- | --- | --- | --- | --- | --- | --- | --- | --- | --- | --- | --- | --- | --- | --- | --- | --- |
| Cc1ccc(C2SCCC(=O)N2CCCNc2ccnc3cc(Cl)ccc23)s1 (centres undefined) | 13.9 | 23.9 | 22 | 23.9 | 14.2 | 14 | 14.2 | 13.9 | 13.9 | 23.9 |  |  |  |  |  |  |  |  |  |
| O=C1CCSC(c2ccccc2F)N1CCCNc1ccnc2cc(Cl)ccc12 (centres undefined) | 14.3 | 23.9 | 39 |  | 14.3 | 14.2 | 18.8 | 14.3 | 14.1 |  |  |  |  |  |  |  |  |  |  |
| COc1ccc(C2SCCC(=O)N2CCCNc2ccnc3cc(Cl)ccc23)cc1 (centres undefined) | 14.3 | 24.1 | 32 | 24.2 | 14.2 | 14.1 | 14.2 | 14.1 | 14.3 | 23.3 | 24.4 |  |  |  |  |  |  |  |  |
| O=C1CCSC(c2cccc(O)c2)N1CCCNc1ccnc2cc(Cl)ccc12 (centres undefined) | 14.1 |  | 39.5 |  | 13.9 | 14.3 | 13.8 | 14 | 13.9 |  | 24.3 | 23.9 |  |  |  |  |  |  |  |
| O=C1CCSC(c2ccco2)N1CCCNc1ccnc2cc(Cl)ccc12 (centres undefined) | 14.2 | 24.2 | 38.5 | 24.1 | 14 | 14.3 | 14.1 | 14.2 | 13.7 | 23.5 | 24.1 |  |  |  |  |  |  |  |  |
| CCC1SCCC(=O)N1CCCNc1ccnc2cc(Cl)ccc12 (centres undefined) | 13.5 | 23.1 | 18.5 | 23.1 | 13.7 | 12.9 | 13.1 | 13.2 | 13.5 | 23.2 | 23.4 | 23.1 |  |  |  |  |  |  |  |
| CN(C)c1ccc(C2SCCC(=O)N2CCCNc2ccnc3cc(Cl)ccc23)cc1 (centres undefined) | 14 | 23.9 | 25 | 24.1 | 14.3 | 13.9 | 14.3 | 14.1 | 13.7 | 23.7 | 23.9 |  |  |  |  |  |  |  |  |
| CCN(CC)CCCC(C)Nc1ccnc2cc(Cl)ccc12 (centres undefined) [CHLOROQUINE] |  |  |  |  |  |  |  |  |  |  |  |  | 67 |  |  |  |  |  |  |
| CC1COc2c(N3CCN(C)CC3)c(F)cc3c(=O)c(C(=O)O)cn1c23 (centres undefined) [OFLOXACIN] |  |  |  |  |  |  |  |  |  |  |  |  |  | 21.5 | 20.3 | 20.8 | 20.3 | 21.7 | 20.7 |
